The values below come from patent publication US11492361B2, “Compounds useful in HIV therapy” (GlaxoSmithKline Intellectual Property Development Limited, priority 2018, dated 2022).

Broadly, the EC50 is the concentration needed to bring the measured effect to its halfway point.

Counter-ions that a name gives are not always drawn.

For this assay, the system named is Jurkat HIV-luciferase clones. Nature of the assay: Jurkat latency reversal assay. The format is cell-based. The note with it: Homo sapiens, Jurkat, 48 h. The protocol:
Jurkat HIV-luciferase clones were maintained in RPMI medium 1640 (Gibco by Life Technologies) containing 10% (vol/vol) fetal bovine serum (SAFC/Sigma-Aldrich) and 25 units/mL penicillin, 25 units/mL streptomycin (Gibco by Life Technologies), and were split 1:4 every 3 to 4 days to maintain a cell density of ˜0.3 to 1 million cells/mL. The Jurkat clones were maintained with the addition of 500 nM EFV in the medium. Three Jurkat cell clones (C16, I15, and N6), each harboring one or two integrated HIV proviruses expressing the luciferase reporter gene, were added at equal amounts for a total of 5,000 cells per well to 384-well plates containing compound titrations. Dose-response testing was performed on compounds dissolved in dimethyl sulfoxide (DMSO, Fisher Scientific, Merelbeke, Belgium) dispensed in duplicate serial 3-fold, 14-point titrations using a D300e Digital Droplet Dispenser (Hewlett-Packard) to give final assay concentrations of 10 μM to 2.1 pM in 50 μL of medium at 0.5% DMSO (vol/vol) final concentration. Cells and compound were incubated at 37° C. for 48 hours, unless otherwise indicated, followed by the addition of 20 μL of Steady-Glo® Luciferase (Promega). Luminescence resulting from the induction of the virally expressed luciferase was measured using an EnVision 2102 Multilabel Plate Reader (Perkin Elmer). Dose-response relationships were analyzed with GraphPad PRISM 6 using a four-parameter logistic regression model to calculate the concentration of compound that gives half-maximal response (EC50) and the maximal percent activation compared to the vehicle control.
For the molecule `CN[C@@H](C)C(=S)N[C@H]1CCS[C@H]2CC(C)(C)[C@@H](C(=O)N[C@H](COCCOCCOC[C@@H](NC(=O)[C@H]3N4C(=O)[C@@H](NC(=S)[C@H](C)NC)CCS[C@H]4CC3(C)C)c3ccccc3)c3ccccc3)N2C1=O` [compound 39, (4S,4′S,7S,7′S,9aS,9a′S)-N,N′-((1S,1′S)-((oxybis(ethane-2,1-diyl))bis(oxy))bis(1-phenylethane-2,1-diyl))bis(8,8-dimethyl-4-((S)-2-(methylamino)propanethioamido)-5-oxooctahydropyrrolo[2,1-b][1,3]thiazepine-7-carboxamide) dihydrochloride], the EC50 worked out at 51.8 nM.

Take `CN[C@@H](C)C(=S)N[C@H]1CCS[C@H]2CC(C)(C)[C@@H](C(=O)N[C@H](COCCCCCCOC[C@@H](NC(=O)[C@H]3N4C(=O)[C@@H](NC(=S)[C@H](C)NC)CCS[C@H]4CC3(C)C)c3ccccc3)c3ccccc3)N2C1=O` [compound 41, (4S,4′S,7S,7′S,9aS,9a′S)-N,N′-((1S,1′S)-(hexane-1,6-diylbis(oxy))bis(1-phenylethane-2,1-diyl))bis(8,8-dimethyl-4-((S)-2-(methylamino)propanethioamido)-5-oxooctahydropyrrolo[2,1-b][1,3]thiazepine-7-carboxamide) dihydrochloride]: the EC50 came to 51.6 nM.

Consider `CN[C@@H](C)C(=S)N[C@H]1CCS[C@H]2CC(C)(C)[C@@H](C(=O)N[C@H](COCc3ccc(COC[C@@H](NC(=O)[C@H]4N5C(=O)[C@@H](NC(=S)[C@H](C)NC)CCS[C@H]5CC4(C)C)c4ccccc4)cc3)c3ccccc3)N2C1=O` [compound 43, (4S,4′S,7S,7′S,9aS,9a′S)-N,N′-((1S,1′S)-((1,4-phenylenebis(methylene))bis(oxy))bis(1-phenylethane-2,1-diyl))bis(8,8-dimethyl-4-((S)-2-(methylamino)propanethioamido)-5-oxooctahydropyrrolo[2,1-b][1,3]thiazepine-7-carboxamide) dihydrochloride], for which the EC50 turned out to be 43.4 nM.

As for `CN[C@@H](C)C(=S)N[C@H]1CCS[C@H]2CC(C)(C)[C@@H](C(=O)N[C@H]3c4ccccc4C[C@H]3C(=O)NCc3ccc(CNC(=O)[C@@H]4Cc5ccccc5[C@@H]4NC(=O)[C@H]4N5C(=O)[C@@H](NC(=S)[C@H](C)NC)CCS[C@H]5CC4(C)C)cc3)N2C1=O` [compound 44, (4S,7S,9aS)-N-[(1R,2R)-2-({[4-({[(1R,2R)-1-[(4S,7S,9aS)-8,8-dimethyl-4-[(2S)-2-(methylamino)propanethioamido]-5-oxo-octahydropyrrolo[2,1-b][1,3]thiazepine-7-amido]-2,3-dihydro-1H-inden-2-yl]formamido}methyl)phenyl]methyl}carbamoyl)-2,3-dihydro-1H-inden-1-yl]-8,8-dimethyl-4-[(2S)-2-(methylamino)propanethioamido]-5-oxo-octahydropyrrolo[2,1-b][1,3]thiazepine-7-carboxamide], the EC50 amounted to 20.4 nM.

`CN[C@@H](C)C(=O)N[C@H]1CCS[C@H]2CC(C)(C)[C@@H](C(=O)N[C@H]3c4ccccc4C[C@H]3C(=O)NCc3ccc(CNC(=O)[C@@H]4Cc5ccccc5[C@@H]4NC(=O)[C@H]4N5C(=O)[C@@H](NC(=O)[C@H](C)NC)CCS[C@H]5CC4(C)C)cc3)N2C1=O` [compound 45, (4S,7S,9aS)-N-[(1R,2R)-2-({[4-({[(1R,2R)-1-[(4S,7S,9aS)-8,8-dimethyl-4-[(2S)-2-(methylamino)propanamido]-5-oxo-octahydropyrrolo[2,1-b][1,3]thiazepine-7-amido]-2,3-dihydro-1H-inden-2-yl]formamido}methyl)phenyl]methyl}carbamoyl)-2,3-dihydro-1H-inden-1-yl]-8,8-dimethyl-4-[(2S)-2-(methylamino)propanamido]-5-oxo-octahydropyrrolo[2,1-b][1,3]thiazepine-7-carboxamide]: the EC50 stood at 183 nM.

In the case of `CN[C@@H](C)C(=O)N[C@H]1CCS[C@H]2CC(C)(C)[C@@H](C(=O)N[C@H]3c4ccccc4C[C@H]3C(=O)N3CCN(C(=O)[C@@H]4Cc5ccccc5[C@@H]4NC(=O)[C@H]4N5C(=O)[C@@H](NC(=O)[C@H](C)NC)CCS[C@H]5CC4(C)C)CC3)N2C1=O` [compound 46, (4S,7S,9aS)-N-[(1R,2R)-2-{4-[(1R,2R)-1-[(4S,7S,9aS)-8,8-dimethyl-4-[(2S)-2-(methylamino)propanamido]-5-oxo-octahydropyrrolo[2,1-b][1,3]thiazepine-7-amido]-2,3-dihydro-1H-indene-2-carbonyl]piperazine-1-carbonyl}-2,3-dihydro-1H-inden-1-yl]-8,8-dimethyl-4-[(2S)-2-(methylamino)propanamido]-5-oxo-octahydropyrrolo[2,1-b][1,3]thiazepine-7-carboxamide], the EC50 is 127 nM.

Consider `CN[C@@H](C)C(=S)N[C@H]1CCS[C@H]2CC(C)(C)[C@@H](C(=O)N[C@H]3c4ccccc4C[C@H]3C(=O)N3CCN(C(=O)[C@@H]4Cc5ccccc5[C@@H]4NC(=O)[C@H]4N5C(=O)[C@@H](NC(=S)[C@H](C)NC)CCS[C@H]5CC4(C)C)CC3)N2C1=O` [compound 47, (4S,7S,9aS)-N-[(1R,2R)-2-{4-[(1R,2R)-1-[(4S,7S,9aS)-8,8-dimethyl-4-[(2S)-2-(methylamino)propanethioamido]-5-oxo-octahydropyrrolo[2,1-b][1,3]thiazepine-7-amido]-2,3-dihydro-1H-indene-2-carbonyl]piperazine-1-carbonyl}-2,3-dihydro-1H-inden-1-yl]-8,8-dimethyl-4-[(2S)-2-(methylamino)propanethioamido]-5-oxo-octahydropyrrolo[2,1-b][1,3]thiazepine-7-carboxamide], for which the EC50 is 1.2 nM.

On to `CN[C@@H](C)C(=O)N[C@H]1CCS[C@H]2CC(C)(C)[C@@H](C(=O)N[C@H]3c4ccccc4C[C@H]3C(=O)NCC#CC#CCNC(=O)[C@@H]3Cc4ccccc4[C@@H]3NC(=O)[C@H]3N4C(=O)[C@@H](NC(=O)[C@H](C)NC)CCS[C@H]4CC3(C)C)N2C1=O` [compound 49, (4S,7S,9aS)-N-[(1R,2R)-2-[(6-{[(1R,2R)-1-[(4S,7S,9aS)-8,8-dimethyl-4-[(2S)-2-(methylamino)propanamido]-5-oxo-octahydropyrrolo[2,1-b][1,3]thiazepine-7-amido]-2,3-dihydro-1H-inden-2-yl]formamido}hexa-2,4-diyn-1-yl)carbamoyl]-2,3-dihydro-1H-inden-1-yl]-8,8-dimethyl-4-[(2S)-2-(methylamino)propanamido]-5-oxo-octahydropyrrolo[2,1-b][1,3]thiazepine-7-carboxamide], for which the EC50 was 466 nM.

With `CN[C@@H](C)C(=O)N[C@H]1CCS[C@H]2CC(C)(C)[C@@H](C(=O)N[C@H]3c4ccccc4C[C@H]3OCCCOCCCO[C@@H]3Cc4ccccc4[C@@H]3NC(=O)[C@H]3N4C(=O)[C@@H](NC(=O)[C@H](C)NC)CCS[C@H]4CC3(C)C)N2C1=O` [compound 51, (4S,7S,9aS)-N-[(1S,2R)-2-[3-(3-{[(1S,2R)-1-[(4S,7S,9aS)-8,8-dimethyl-4-[(2S)-2-(methylamino)propanamido]-5-oxo-octahydropyrrolo[2,1-b][1,3]thiazepine-7-amido]-2,3-dihydro-1H-inden-2-yl]oxy}propoxy)propoxy]-2,3-dihydro-1H-inden-1-yl]-8,8-dimethyl-4-[(2S)-2-(methylamino)propanamido]-5-oxo-octahydropyrrolo[2,1-b][1,3]thiazepine-7-carboxamide], the EC50 amounted to 24 nM.

Regarding `CN[C@@H](C)C(=S)N[C@H]1CCS[C@H]2CC(C)(C)[C@@H](C(=O)N[C@H](COCCCn3cc(COC[C@@H](NC(=O)[C@H]4N5C(=O)[C@@H](NC(=S)[C@H](C)NC)CCS[C@H]5CC4(C)C)c4ccccc4)nn3)c3ccccc3)N2C1=O` [compound 53, (4S,7S,9aS)-N-[(1S)-2-[3-(4-{[(2S)-2-{[(4S,7S,9aS)-8,8-dimethyl-4-[(2S)-2-(methylamino)propanethioamido]-5-oxo-octahydropyrrolo[2,1-b][1,3]thiazepin-7-yl]formamido}-2-phenylethoxy]methyl}-1H-1,2,3-triazol-1-yl)propoxy]-1-phenylethyl]-8,8-dimethyl-4-[(2S)-2-(methylamino)propanethioamido]-5-oxo-octahydropyrrolo[2,1-b][1,3]thiazepine-7-carboxamide], the EC50 came out at 178 nM.

Turning to `CN[C@@H](C)C(=O)N[C@H]1CCS[C@H]2CC(C)(C)[C@@H](C(=O)N[C@H](COCc3ccc4ccc(COC[C@@H](NC(=O)[C@H]5N6C(=O)[C@@H](NC(=O)[C@H](C)NC)CCS[C@H]6CC5(C)C)c5ccccc5)cc4c3)c3ccccc3)N2C1=O` [compound 56, (4S,4′S,7S,7′S,9aS,9a′S)-N,N′-((1S,1′S)-((naphthalene-2,7-diylbis(methylene))bis(oxy))bis(1-phenylethane-2,1-diyl))bis(8,8-dimethyl-4-((S)-2-(methylamino)propanamido)-5-oxooctahydropyrrolo[2,1-b][1,3]thiazepine-7-carboxamide)], the EC50 was 2.9 nM.
